From patent US20090318396A1, “CORTICOSTEROID LINKED BETA-AGONIST COMPOUNDS FOR USE IN THERAPY” (priority 2008, published 2009)

How the values were obtained:
[1] = Stability of steroid C-21 esters, carbonates and carbamates in rat lung homogenate; conditions: for Mean [Parent] (nM) at 2 hrs, 37° C.: parent compound; for Mean % compound remaining at 2 hrs, 37° C.: 900 nM, n=3
Protocol: Lungs from Fischer 344 rats were obtained fresh by overnight delivery at 4° C. from BioReclamation Inc. (Hicksville, N.Y.). Lungs were weighed and homogenized in a 1:3 w/v ratio with sterile phosphate buffered saline (PBS, 10 mM, pH 7.4) in glass vials on ice. After centrifugation at 3,000×g for 10 min at 4° C. the supernatant was decanted into sterile conical tubes and placed on ice. The total protein content of the supernatant was determined by the bicinchoninic acid (BCA) method (Pierce Biotechnology, Rockford, Ill.), using bovine serum albumin (BSA) as the standard. Lung homogenates were prepared to a final concentration of 1 mg total protein/mL in 10 mM PBS, pH 7.4.
Heat-inactivation was achieved by incubation at 80° C. for 30 min, after which the homogenate was allowed to cool to room temperature, stored overnight at 4° C. The homogenate was used for the assay and standard curve preparations. Before use, each homogenate preparation was equilibrated for 15 min in a 37° C. water bath. […] DMSO (2.7 uL) added to 3 mL of temperature-equilibrated homogenate served as a control. Aliquots (100 uL) of homogenate+compound were added to 400 μL quenching solution consisting of 100% HPLC-grade acetonitrile+500 ng/mL glyburide for the zero time point (n=3 for each time point).
The glyburide served as an internal LC/MS/MS standard. The remainder of each drug+homogenate solution was aliquoted into a 96-well tissue culture plates. After an additional 30 min and 120 min incubation at 37° C., 100 μL aliquots were added to 400 μL quenching solution. Denatured proteins in the quenching solution were separated by centrifugation at 3000×g for 2 min at 4° C., and 160 μL of the supernatants were transferred to new 96-well plate for analysis by LC/MS/MS. Collection plates were covered with plastic film and were kept on ice. For storage, covered plates were and kept stored at −80° C. until further use.
An aliquot of 50 μL of each sample was diluted with 50 μL of water containing internal standard at 4° C. The diluted samples were then centrifuged for 20 minutes at 3000 rpm at 4° C. An aliquot of 20 μL of the solution was injected into the TSQ Ultra Quantum.
LC/MS/MS system. The compounds were separated by HPLC using a HyPurity C18 HPLC column (30×2.1 mm, 5μ) from ThermoHypersil. A Multiplex LX-2 HPLC system (Cohesive Technologies, Franklin, Mass.) with two identical Agilent 1100 series binary pumps (P/N G1312A) were used for elution and separation. Samples were maintained at 4° C. in an HTS Pal autosampler (LEAP Technologies, Carrboro, N.C.) in order to reduce any potential spontaneous hydrolysis of the compounds before injection onto the HPLC. The analytes were eluted using the following mobile phases; Mobile phase A contained 1% acetonitrile in 10 mM ammonium formate aqueous solution with 1% formic acid. Mobile phase B contained 80% acetonitrile in 10 mM ammonium formate with 1% formic acid. The HPLC elution program used to elute the analytes was as follows:
The samples were further analyzed by tandem mass spectrometry using a TSQ Quantum Ultra triple quadrupole mass spectrometer (Thermo Finnigan, San Jose, Calif.) using a selective reaction monitoring (SRM) scan type. The mass spectrometry parameters used were as follows:
Nine-point standard curves for each test compound were prepared and analyzed in heat-inactivated lung homogenate. […] The data expressed in Table 2 represent the mean (n=3) percent remaining compound in both types of homogenate at 2 hours, 37° C.

[2] = Drug levels in plasma, BALF and lung after IT administration in the rat; conditions: for Plasma Conc: analyte after IT administration of Example 83, 1 mg/kg
Protocol: Compounds of Examples 52 and 83 were formulated for intratracheal (IT) dosing in 10% EtOH, 90% Sterile Water, and dosed in male Sprague-Dawley rats at 3 mg/kg (Example 52) and 1 mg/kg (Example 83). Each dosing group consisted of 3 male, naïve purebred Sprague-Dawley rats. At dosing, the animals weighed ˜0.30 kg. The animals were fasted overnight prior to dose administration and up to 2 hr after dosing. The compounds were administered IT using a Penn Century Microsprayer (Model 1A-1B).
Blood samples were collected at 0.5, 2, and 4 hours post-dose. Each blood sample (0.5-0.6 mL per sample) was collected via the orbital sinus (following anesthesia for BAL procedure) into tubes containing EDTA anti-coagulant into containers surrounded by dry ice at 0.5, 2 and 4 hr (mean, n=6). Blood samples were stored at −20±5° C. until shipped for analysis.
The animals were anesthetized with an intramuscular (IM) injection of a ketamine/xylazine/acepromazine (80/10/2 mg/kg) cocktail at a dose volume of 1.1 mL/kg. A cannula (modified Bard® infant feeding tube) was inserted into the trachea. Warmed sterile saline was injected into the lungs. The lungs were gently massaged by palpation of the chest for approximately 45 seconds. The fluid (BALF) was recovered and placed on ice. The procedure was repeated two more times, and all three BALF samples pooled. The fluid was centrifuged under refrigerated conditions at 350 g for 10 minutes. The supernatant and cell pellet were collected and stored at approximately −70° C. until shipped for analysis.
Immediately following each BAL procedure, the lungs from each animal were removed, blotted dry, weighed, and stored frozen at −70° C. until shipped for analysis.
An LC/MS/MS method was used to measure the concentration of compound in plasma.
Add 3×w/v of 1×PBS buffer (90:10-PBS:ACN) to each lung tissue. Homogenize the sample w/Polytron (PT1200) and take 50 uL of supernatant and inject to LC/MSMS.
An aliquot of 50 μL of each plasma sample was treated with 100 mL of acetonitrile (ACN) containing internal standard. After the protein precipitation, an aliquot of 100 μL of the supernatant was transferred to a clean 96-well plate and mixed with 100 μL of water. An aliquot of 30 μL of the above solution was injected to the TSQ Ultra Quantum LC/MS/MS system.
A HyPurity C18 HPLC column (30×2.1 mm, 5μ) from ThermoHypersil (Part #: 22105-032130) was used. Mobile phase A contained 1% acetonitrile in 10 mM ammonium formate aqueous solution with 1% formic acid. Mobile phase B contained 80% acetonitrile in 10 mM ammonium formate with 1% formic acid. An Agilent 1100 series binary pump (P/N G1312A Bin Pump) was used for elution and separation. HTS Pal autosampler from LEAP Technologies, Carrboro, N.C. was used.
TSQ Quantum Ultra triple quadrupole mass spectrometer from Thermo Finnigan, San Jose, Calif. was used in selective reaction monitoring (SRM) operation mode, Tune file:

[3] = Inactive (heat-inactivated) rat lung homogenate

Compound | Mean [Parent] (nM) at 2 hrs, 37° C. ([1]; Active homogenate) | Mean % compound remaining at 2 hrs, 37° C. ([1]; Active rat lung homogenate) | Mean % compound remaining at 2 hrs, 37° C. [1, 3] | Mean [Parent] (nM) at 2 hrs, 37° C. ([1]; Inactive homogenate) | Metabolism in the lung following IT administration ([2]; IT) | Plasma Conc ([2]; 0.5 hr) | Plasma Conc ([2]; 2.0 hr) | Plasma Conc ([2]; 4.0 hr)
CC(CN(C)C)OC(=O)OCC(=O)[C@@]12O[C@H](C3CCCCC3)O[C@@H]1C[C@H]1[C@@H]3CCC4=CC(=O)C=C[C@]4(C)[C@H]3[C@@H](O)C[C@@]12C (some centres unmarked) [Example 28] | 120 nM | 45% | 64% | 147 nM |  |  |  | 
C[C@]12C=CC(=O)C=C1CC[C@@H]1[C@@H]2[C@@H](O)C[C@@]2(C)[C@H]1C[C@H]1O[C@@H](C3CCCCC3)O[C@]12C(=O)COC(=O)c1cccnc1 [Example 29, Nicotinic acid [[11β,16α]-[[((R)-cyclohexylmethylene)bis(oxy)]-11-hydroxypregna-1,4-diene-3,20-dion-21-yl]]ester] | 2 nM | 1% | 72% | 130 nM |  |  |  | 
CCN(CC)Cc1cccc(C(=O)OCC(=O)[C@@]23O[C@H](C4CCCCC4)O[C@@H]2C[C@H]2[C@@H]4CCC5=CC(=O)C=C[C@]5(C)[C@H]4[C@@H](O)C[C@@]23C)c1 [Example 31, 3-Diethylaminomethylbenzoic acid [[11β,16α]-[[((R)-cyclohexylmethylene)bis(oxy)]-11-hydroxypregna-1,4-diene-3,20-dion-21-yl]]ester] | 127 nM | 68% | 68% | 127 nM |  |  |  | 
CCN(CC)CC(=O)OCC(=O)[C@@]12O[C@H](C3CCCCC3)O[C@@H]1C[C@H]1[C@@H]3CCC4=CC(=O)C=C[C@]4(C)[C@H]3[C@@H](O)C[C@@]12C [Example 32, 4-Diethylaminoacetic acid [[11β,16α]-[[((R)-cyclohexylmethylene)bis(oxy)]-11-hydroxypregna-1,4-diene-3,20-dion-21-yl]]ester] | 1 nM | 1% | 61% | 119 nM |  |  |  | 
C[C@]12C=CC(=O)C=C1CC[C@@H]1[C@@H]2[C@@H](O)C[C@@]2(C)[C@H]1C[C@H]1O[C@@H](C3CCCCC3)O[C@]12C(=O)COC(=O)/C=C/c1cccnc1 [Example 33, 3-(Pyridin-3-yl)acrylic acid [[11β,16a]-[[((R)-cyclohexylmethylene)bis(oxy)]-11-hydroxypregna-1,4-diene-3,20-dion-21-yl]]ester] | 4 nM | 3% | 78% | 124 nM |  |  |  | 
C[C@]12C=CC(=O)C=C1CC[C@@H]1[C@@H]2[C@@H](O)C[C@@]2(C)[C@H]1C[C@H]1O[C@@H](C3CCCCC3)O[C@]12C(=O)COC(=O)CCc1cccnc1 [Example 34, 3-(Pyridin-3-yl)propionic acid [[11β,16α]-[[((R)-cyclohexylmethylene)bis(oxy)]-11-hydroxypregna-1,4-diene-3,20-dion-21-yl]]ester] | 1 nM | 0% | 73% | 159 nM |  |  |  | 
CN1CCC[C@H]1C(=O)OCC(=O)[C@@]12O[C@H](C3CCCCC3)O[C@@H]1C[C@H]1[C@@H]3CCC4=CC(=O)C=C[C@]4(C)[C@H]3[C@@H](O)C[C@@]12C [Example 38, (S) 1-Methylpyrrolidinecarboxylic acid [[11β,16α]-[[((R)-cyclohexylmethylene)bis(oxy)]-11-hydroxypregna-1,4-diene-3,20-dion-21-yl]]ester] | 1 nM | 1% | 40% | 71 nM |  |  |  | 
CN(C)CCNC(=O)OCC(=O)[C@@]12O[C@H](C3CCCCC3)O[C@@H]1C[C@H]1[C@@H]3CCC4=CC(=O)C=C[C@]4(C)[C@H]3[C@@H](O)C[C@@]12C [Example 39, 2-Dimethylaminoethylcarbamic acid [[11β,16α]-[[((R)-cyclohexylmethylene)bis(oxy)]-11-hydroxypregna-1,4-diene-3,20-dion-21-yl]]ester] | 186 nM | 92% | 78% | 162 nM |  |  |  | 
CN(C)CCN(C)C(=O)OCC(=O)[C@@]12O[C@H](C3CCCCC3)O[C@@H]1C[C@H]1[C@@H]3CCC4=CC(=O)C=C[C@]4(C)[C@H]3[C@@H](O)C[C@@]12C [Example 40, 2-Dimethylaminoethyl(methyl)carbamic acid [[11β,16α]-[[((R) -cyclohexylmethylene)bis(oxy)]-11-hydroxypregna-1,4-diene-3,20-dion-21-yl]]ester] | 222 nM | 83% | 78% | 167 nM |  |  |  | 
CN1CCN(C(=O)OCC(=O)[C@@]23O[C@H](C4CCCCC4)O[C@@H]2C[C@H]2[C@@H]4CCC5=CC(=O)C=C[C@]5(C)[C@H]4[C@@H](O)C[C@@]23C)CC1 [Example 41, 4-Methylpiperazinecarboxylic acid [[11β,16α]-[[((R)-cyclohexylmethylene)bis(oxy)]-11-hydroxypregna-1,4-diene-3,20-dion-21-yl]]ester] | 170 nM | 68% | 78% | 172 nM |  |  |  | 
CC(C)[C@@H](N)C(=O)OCC(=O)[C@@]12O[C@H](C3CCCCC3)O[C@@H]1C[C@H]1[C@@H]3CCC4=CC(=O)C=C[C@]4(C)[C@H]3[C@@H](O)C[C@@]12C [Example 50, Valine [[11β,16α]-[16,17-((R)-cyclohexylmethylene)bis(oxy)]-11-hydroxypregna-1,4-diene-3,20-dion-21-yl]ester] | 219 nM | 45% | 25% | 50 nM |  |  |  | 
CC(C)[C@@H](NC(=O)c1cccnc1)C(=O)OCC(=O)[C@@]12O[C@H](C3CCCCC3)O[C@@H]1C[C@H]1[C@@H]3CCC4=CC(=O)C=C[C@]4(C)[C@H]3[C@@H](O)C[C@@]12C [Example 51, N-(Pyridin-3-carbonyl)valine [[11β,16α]-[16,17-((R)-cyclohexylmethylene)bis(oxy)]-11-hydroxypregna-1,4-diene-3,20-dion-21-yl]ester] | 176 nM | 86% | 85% | 169 nM |  |  |  | 
CN(C)CC(=O)OCC(=O)[C@@]12O[C@H](C3CCCCC3)O[C@@H]1C[C@H]1[C@@H]3CCC4=CC(=O)C=C[C@]4(C)[C@H]3[C@@H](O)C[C@@]12C [Example 75, N,N-Dimethylglycine [[11β,16α]-[16,17-((R)-cyclohexylmethlylene)bis(oxy)]-11-hydroxypregna-1,4-diene-3,20-dion-21-yl]ester] | 1 nM | 1% | 55% | 101 nM |  |  |  | 
C[C@]12C=CC(=O)C=C1CC[C@@H]1[C@@H]2[C@@H](O)C[C@@]2(C)[C@H]1C[C@H]1O[C@@H](C3CCCCC3)O[C@]12C(=O)COC(=O)Cc1cccnc1 [Example 76, 3-Pyridineacetic acid [[11β,16α]-[16,17-((R)-cyclohexylmethylene)bis(oxy)]-11-hydroxypregna-1,4-diene-3,20-dion-21-yl]ester] | 4 nM | 2% | 83% | 142 nM |  |  |  | 
CC(C)[C@@H](C(=O)OCC(=O)[C@@]12O[C@H](C3CCCCC3)O[C@@H]1C[C@H]1[C@@H]3CCC4=CC(=O)C=C[C@]4(C)[C@H]3[C@@H](O)C[C@@]12C)N(C)C [Example 79, N,N-dimethylvaline [[11β,16α]-[16,17-((R)-cyclohexylmethylene)bis(oxy)]-11-hydroxypregna-1,4-diene-3,20-dion-21-yl]ester] | 149 nM | 85% | 61% | 88 nM |  |  |  | 
CC[N+](CC)(CC(=O)OCC(=O)[C@@]12O[C@H](C3CCCCC3)O[C@@H]1C[C@H]1[C@@H]3CCC4=CC(=O)C=C[C@]4(C)[C@H]3[C@@H](O)C[C@@]12C)Cc1cc([C@@H](O)CNCCCCCCOCCCCc2ccccc2)ccc1OP(=O)(O)O.[Cl-] [Example 83, [5-[1-(R)-hydroxy-2-[6-(4-phenylbutoxy)hexylamino]ethyl]-2-phosphonooxybenzyl]-(diethyl)-[[11β,16α]-[16,17-((R-cyclohexylmethylene)bis(oxy)]-11-hydroxypregna-1,4-diene-3,20-dion-21-oxy]-carbonylmethyl]ammonium chloride] |  |  |  |  | metabolized to Salmeterol and Desisobutyryl Ciclesonide in the lung |  |  | 
C[C@]12C=CC(=O)C=C1CC[C@@H]1[C@@H]2[C@@H](O)C[C@@]2(C)[C@H]1C[C@H]1O[C@@H](C3CCCCC3)O[C@]12C(=O)CO [des-ciclesonide, desisobutyryl ciclesonide, reference compound] | 119 nM | 98% | 71% | 84 nM |  | BLQ | BLQ | BLQ
